Source: patent publication US5554630A, “Benzimidazole compounds” (NeuroSearch A/S, priority 1993, dated 1996)
Read-outs that look alike come from different tables or passages of the source.

Assays:
[1] = target: benzodiazepine receptor (GABAA receptor); experiment: in vitro inhibition of 3H-flunitrazepam binding (rat cerebral cortex membranes); design: species or system rat (male Wistar
Description: At present two types of GABA receptors are known, the GABAA and the GABAB receptors. […] Activation of GABA receptors leads to alternations in membrane potential (hyperpolarization). The GABAA receptors are associated with chloride influx through its associated and integrated chloride channel, whereas GABAB receptor activation indirectly alters potassium and calcium channels as well as modifies second messenger production. The GABAA recognition sites can be activated by GABA, muscimol; and isoguvacine for example, but not by GABAB agonists such as for example baclofen. The modulatory GABAA recognition site at the benzodiazepine receptor sites can be selectively radiolabelled with 3H-flunitrazepam. The affinity of various potential ligands for the benzodiazepine receptor sites can thus be evaluated by estimating the ability of test compounds to displace 3H-flunitrazepam.
Tissue preparations are performed at zero to four degrees Celsius. Cerebral cortex from male Wistar rats (150-200 g) is homogenized in 2 times 10 ml Tris-HCl, 30 mM at pH 7.4 The resulting suspension is centrifuged at 40,000 g for 15 minutes. The pellet is washed three times with buffer, centrifuged at two degrees Celsius at 40,000 g for ten minutes. The washed pellet is homogenized in 2 times 10 ml of buffer and is thereafter incubated on a water bath at 37° C. for 30 minutes and is thereafter centrifuged at 40,000 g for 10 minutes. The pellet is then homogenized with buffer and is centrifuged at 0° C. for 10 minutes at 40,000 g. The final pellet is resuspended in 30 ml buffer and the preparation may thereafter be stored at -20° C. In the test situation the membrane preparation is thawed and centrifuged at 2° C. for ten minutes at 48,000 g. The pellet is then washed two times with 2 times 10 ml 50 mM Tris-citrate at pH 7.1 using an Ultra-Turrax homogenizer and centrifuged at 48,000 g for 10 minutes. The hereby obtained pellet is resuspended in 50 mM Tris-citrate at pH 7.1,500 ml buffer per gram of original tissue, and is then used for binding assays. Aliquots of 0.5 ml tissue is added to 0.025 ml of 3H-flunitrazepam, final concentration of 1 nM, and is mixed and incubated for 40 minutes at 2° C. Non-specificbinding is determined using clonazepam, at 100 ng/ml final concentration. After incubation 5 ml of icecold buffer is added to the samples and these are poured directly onto Whatman GF/C glass fibre filters under suction and is immediately washed with 5 ml icecold buffer. The amount of radioactivity on the filters is determined by conventional liquid scintillation counting. Specific binding is total binding minus non specific binding. Test value is calculated as the IC50 which is equivalent to the concentration which inhibits the specific binding by 50 percent.
The method used to determine in vitro inhibition of ^3 H-flunitrazepam binding is presented under the heading of Biology.

[2] = tested on: GABAA receptor-ion channel complex (benzodiazepine receptor, mouse forebrain); experiment: in vivo inhibition of 3H-flunitrazepam binding in mouse forebrain; design: species or system mouse (female NMRI); details: i.p. 10 min before i.v. 3H-FNM, mice killed 20 min later, 30 min
[3] = tested on: GABAA receptor-ion channel complex; details: background statement, in vitro; cited from earlier work
[4] = first table, 1 nM 3H-flunitrazepam, 40 min at 2° C, read-out: IC50
[5] = second table (R6/R11), 3H-flunitrazepam, read-out: in-vitro binding IC50

CN1C(=O)c2ccccc2-n2cnc3cc(C(F)(F)F)cc1c32 [Compound 2f, 4-trifluoromethyl-6,7-dihydro-6-methyl-7-oxo-benzimidazo[3,4-ab][1,4]benzodiazepine]
IC50 [1, 4]: 5.4 nM

FC(F)(F)c1ccc2c(c1)ncn2-c1cccc(-n2ccnc2)c1 [Compound 3a, 1-(3-(1-Imidazolyl)-phenyl)-5 trifluoromethylbenzimidazole]
IC50 [1, 5]: 16 nM | in-vivo binding ED50 [2]: 7.3 mg/kg

CC(C)OC(=O)c1ccc2c(c1)ncn2-c1cccc(-n2ccnc2)c1 [Compound 4a]
IC50 [1, 5]: 11 nM | in-vivo binding ED50 [2]: > 10.0 mg/kg

Cc1ccc2c(c1)ncn2-c1cccc(-n2ccnc2)c1 [Compound 5a, 1-[3-(1-imidazolyl)-phenyl]-5-methyl-benzimidazole]
IC50 [1, 4]: 1.2 nM | IC50 [1, 5]: 1.2 nM | in-vivo binding ED50 [2]: 0.8 mg/kg

CC(C)(C)c1ccc2c(c1)ncn2-c1cccc(-n2ccnc2)c1 [Compound 6a, 1-[3-(1-imidazolyl)-phenyl]-5-t-butyl-benzimidazole]
IC50 [1, 4]: 2.4 nM | IC50 [1, 5]: 2.4 nM | in-vivo binding ED50 [2]: 2.1 mg/kg

Cc1cn(-c2cccc(-n3cnc4cc(C(C)(C)C)ccc43)c2)cn1 [Compound 8a]
IC50 [1, 5]: 11 nM

c1ccc(-c2ccc3c(c2)ncn3-c2cccc(-n3ccnc3)c2)cc1 [Compound 9a, 1-[3-(1-imidazolyl)-phenyl]-5-phenyl-benzimidazole]
IC50 [1, 4]: 7.4 nM | IC50 [1, 5]: 7.2 nM | in-vivo binding ED50 [2]: 8.9 mg/kg

CC(C)c1ccc2c(c1)ncn2-c1cccc(-n2ccnc2)c1 [Compound 14a, 1-[3-(1-imidazolyl)-phenyl]-5-i-propyl-benzimidazole]
IC50 [1, 4]: 0.6 nM | IC50 [1, 5]: 0.6 nM | in-vivo binding ED50 [2]: 1.2 mg/kg

Ic1ccc2c(c1)ncn2-c1cccc(-c2cccnc2)c1 [Compound 18a, 1-[3-(3-pyridyl)-phenyl]-5-iodo-benzimidazole]
IC50 [1, 4]: 1.7 nM | IC50 [1, 5]: 1.7 nM | in-vivo binding ED50 [2]: 1.5 mg/kg

CC(C)(C)c1ccc2c(c1)ncn2-c1cccc(-c2cccnc2)c1 [Compound 22a, 1-[3-(3-pyridyl)-phenyl]-5-t-butyl-benzimidazole]
IC50 [1, 5]: 10 nM | in-vivo binding ED50 [2]: 16.3 mg/kg

O=[N+]([O-])c1ccc2c(c1)ncn2-c1cccc(-c2cccnc2)c1 [Compound 24a]
IC50 [1, 5]: 40 nM | in-vivo binding ED50 [2]: 6.1 mg/kg

Cc1noc(-c2cccc(-n3cnc4cc(C(C)(C)C)ccc43)c2)n1 [Compound 33a]
IC50 [1, 5]: 13 nM | in-vivo binding ED50 [2]: 8.2 mg/kg

CC(C)c1ccc2c(c1)ncn2-c1cccc(-n2cnc3ccccc32)c1 [Compound 34a, 1-[3-(1-benzimidazolyl)-phenyl]-5-i-propyl-benzimidazole]
IC50 [1, 4]: 4.3 nM | IC50 [1, 5]: 4.3 nM | in-vivo binding ED50 [2]: 2.8 mg/kg

Cc1nccn1-c1cccc(-n2cnc3cc(-c4ccccc4)ccc32)c1 [Compound 38a, 1-[3-(1-(2-methylimidazolyl))-phenyl]-5-phenyl-benzimidazole]
IC50 [1, 4]: 9 nM | IC50 [1, 5]: 9 nM | in-vivo binding ED50 [2]: 2.6 mg/kg

FC(F)(F)c1ccc2c(c1)ncn2-c1cccc(-n2cnc3ccccc32)c1 [Compound 39a, 1-[3-(1-benzimidazolyl)-phenyl]-5-trifluoromethyl-benzimidazole]
IC50 [1, 4]: 9.2 nM | IC50 [1, 5]: 9.2 nM | in-vivo binding ED50 [2]: 7.5 mg/kg

O=CNc1ccc2c(c1)ncn2-c1cccc(-n2ccnc2)c1 [Compound 41a]
IC50 [1, 5]: 13 nM | in-vivo binding ED50 [2]: > 10.0 mg/kg

c1cncc(-c2cccc(-n3cnc4cc(-c5ccoc5)ccc43)c2)c1 [Compound 45a, 1-[3-(3-pyridyl)-phenyl]-5-(3-furanyl)-benzimidazole]
IC50 [1, 4]: 1.2 nM | IC50 [1, 5]: 1.4 nM | in-vivo binding ED50 [2]: 1.9 mg/kg

O=Cc1ccc2c(c1)ncn2-c1cccc(-c2cccnc2)c1 [Compound 50a, 1-(3-(3-pyridyl)phenyl)-5-formylbenzimidazole]
IC50 [1, 5]: 37 nM | in-vivo binding ED50 [2]: > 3 mg/kg

ON=Cc1ccc2c(c1)ncn2-c1cccc(-c2cccnc2)c1 [Compound 52a, 1-(3-(3-pyridyl)phenyl)-5-aldoximobenzimidazole]
IC50 [1, 5]: 3.3 nM | in-vivo binding ED50 [2]: 1.6 mg/kg

c1cncc(-c2cccc(-n3cnc4cc(-c5nc(C6CC6)no5)ccc43)c2)c1 [Compound 53a]
IC50 [1, 5]: 28 nM | in-vivo binding ED50 [2]: 24.0 mg/kg

NC(=O)NN=Cc1ccc2c(c1)ncn2-c1cccc(-c2cccnc2)c1 [Compound 55a, 1-(3-(3-pyridyl)phenyl)-5-semicarbazonobenzimidazole]
IC50 [1, 5]: 7.6 nM | in-vivo binding ED50 [2]: > 3.0 mg/kg

c1cncc(-c2cccc(-n3cnc4cc(-n5ccnc5)ccc43)c2)c1 [Compound 56a]
IC50 [1, 5]: 22 nM | in-vivo binding ED50 [2]: 6.8 mg/kg

c1cncc(-c2cccc(-n3cnc4cc(-c5ccco5)ccc43)c2)c1 [Compound 57a, 1-[3-(3-pyridyl)-phenyl]-5-(2-furanyl)-benzimidazole]
IC50 [1, 5]: 4.3 nM | in-vivo binding ED50 [2]: 4.8 mg/kg

COCc1ccc2c(c1)ncn2-c1cccc(-c2cccnc2)c1 [Compound 58a]
IC50 [1, 5]: 15 nM | in-vivo binding ED50 [2]: 1.7 mg/kg

CON=Cc1ccc2c(c1)ncn2-c1cccc(-c2cccnc2)c1 [Compound 59a, 1-[3-(3-pyridyl)-phenyl]-5-methylaldoximo-benzimidazole]
IC50 [1, 5]: 2 nM | in-vivo binding ED50 [2]: 1.04 mg/kg

CC(C)c1ccc2c(c1)ncn2-c1cccc(-c2cccnc2)c1 [Compound 60a, 1-[3-(3-pyridyl)-phenyl]-5-i-propyl-benzimidazole]
IC50 [1, 5]: 4.2 nM | in-vivo binding ED50 [2]: 2.2 mg/kg

CN1C(=O)CN=C(c2ccccc2F)c2cc([N+](=O)[O-])ccc21 [^3 H-FNM]
binding to the GABAA receptor-ion channel complex (in words) [3]: selectively and with high-affinity
